Several values for one entry are separate records, joined by “and”; a condition that tells them apart may be missing. Equal entries are not always repeated. Where two headings read alike, the source gives them in different places.
Target: HIV-1 protease (Human immunodeficiency virus type 1 group M subtype B, UniProt P04585)
Test: biochemical
Experimental: The HIV protease screening assay is based on fluorescently labeled substrate which can be resolved from nonlabeled cleavage product using special beads coated with streptavidin. The substrate is biotinylated at the amino terminal arginine and fluorescently labeled with fluorescein isothiocynate (FITC) at the carboxyl terminal lysine. This assay has been employed to detect novel, nonpeptidic inhibitors of HIV-1 protease. Substrate (20 μl of 0.2 μM), sample (10 μl of desired concentration), and enzyme (10 μl of 0.1 μM) are added to a 96 well pandex plate. The assay is run in 0.1M sodium acetate buffer at pH 5.5 in the presence of 1.0M sodium chloride and 0.05% NP-40 with incubated in the dark for one hour at room temperature. Strepavidin coated polystyrene beads {40 μl of 0.1% (w/v)} are added and the plate is incubated in the dark for an additional half hour. The labeled cleavage product is separated from the unreacted substrate via filtration and is read on the Idexx screen machine. The data are analyzed by appropriate computer algorithms to ascertain percent inhibition values.

[1] = read-out: HIV-1 Protease % Inhib, dose 1.000 uM
[2] = read-out: HIV-1 Protease % Inhib, dose 10.000 uM
[3] = read-out: HIV-1 Protease % Inhib, dose 100.000 uM
[4] = dose 1.000 uM, read-out: HIV-1 Protease % Inhib
[5] = dose 10.000 uM, read-out: HIV-1 Protease % Inhib
[6] = dose 100.000 uM, read-out: HIV-1 Protease % Inhib

| Structure (SMILES) | inhibition at 1 µM [1] | inhibition at 10 µM [2] | inhibition at 100 µM [3] | other results |
| --- | --- | --- | --- | --- |
| CCC(c1ccccc1)c1c(O)c2cc(OC)ccc2oc1=O (stereo not drawn) [Example 89, Coumarin, 4-hydroxy-6-methoxy-3-(1-phenylpropyl)-] | < 10% | 10.3% | 52% | – |
| CCC(c1ccccc1)c1c(O)c2ccc(C)cc2oc1=O (stereo not drawn) [Example 90, Coumarin, 4-hydroxy-7-methyl-3-(1-phenylpropyl)-] | < 10% | 29.7% | 89.2% | – |
| CCC(c1ccc(Br)cc1)c1c(O)c2ccccc2oc1=O (stereo not drawn) [Example 91, Coumarin, 3-[1-(4-bromophenyl)propyl]-4-hydroxy-] | < 10% | 38.4% | – | HIV-1 Protease % Inhib (dose 100.000 uM): 94.41% and 71.61% |
| CCC(c1ccccc1)c1c(O)c2ccc(Cl)cc2oc1=O (stereo not drawn) [Example 92, Coumarin, 7-chloro-4-hydroxy-3-(1-phenylpropyl)-] | < 10% | 67.8% | 113% | – |
| CCC(c1ccccc1)c1c(O)c2ccc(O)cc2oc1=O (stereo not drawn) [Example 93, Coumarin, 4,7-dihydroxy-3-(1-phenylpropyl)-] | 23.2% | 79.4% | 109% | IC50 (HIV-1 Protease IC50): 20.6 µM; HIV-1 Protease % Inhib (dose 100.000 uM): 91.7% |
| CCC(c1ccc(OC)cc1)c1c(O)c2ccccc2oc1=O (stereo not drawn) [Example 94, Coumarin, 4-hydroxy-3-[1-(4-methoxyphenyl)propyl]-] | < 10% | 44.7% | 96.4% | HIV-1 Protease % Inhib (dose 100.000 uM): 82.45% |
| CCC(c1ccccc1)c1c(O)c2cc(O)ccc2oc1=O (stereo not drawn) [Example 95, Coumarin, 4,6-dihydroxy-3-(1-phenylpropyl)-] | < 10% | 34.7% | 79.6% | – |
| CCC(c1ccccc1)c1c(O)c2cc(N)ccc2oc1=O (stereo not drawn) [Example 96, Coumarin, 6-amino-4-hydroxy-3-(1-phenylpropyl)-] | < 10% | < 10% | 48.7% | – |
| CCCC(c1cccc(C)c1)c1c(O)c2ccccc2oc1=O (stereo not drawn) [Example 97, Coumarin, 4-hydroxy-3-[1-(3-methylphenyl)butyl]-] | < 10% | 29.9% | 78.2% | – |
| CCC(c1cccc(C#N)c1)c1c(O)c2ccccc2oc1=O (stereo not drawn) [Example 98, Coumarin, 3-[1-(3-cyanophenyl)propyl]-4-hydroxy-] | < 10% | < 10% | 74.5% | – |
| CCC(c1ccccc1)c1c(O)c2ccc3ccccc3c2oc1=O (stereo not drawn) [Example 99, 2H-Naphtho[1,2-b]pyran-2-one, 4-hydroxy-3-(1-phenylpropyl)-] | < 10% | < 10% | 43.3% | – |
| CCC(c1ccc(OCC(O)CO)cc1)c1c(O)c2ccccc2oc1=O (stereo not drawn) [Example 100, Coumarin, 4-hydroxy-3-[1-[4-(2,3-dihydroxy)propoxyphenyl]propyl]-] | < 10% | 12.3% | 53% | HIV-1 Protease % Inhib (dose 10.000 uM): < 10%; HIV-1 Protease % Inhib (dose 100.000 uM): 40.3% |
| CC(c1cccc(C#N)c1)c1c(O)c2ccccc2oc1=O (stereo not drawn) [Example 101, Coumarin, 3-[1-(3-Cyanophenyl)ethyl]-4-hydroxy-] | < 10% | < 10% | 39.2% | – |
| CCC(c1cccc(OC)c1)c1c(O)c2ccccc2oc1=O (stereo not drawn) [Example 102, Coumarin, 4-hydroxy-3-[1-(3-methoxyphenyl)propyl]-] | < 10% | 24% | 78.8% | HIV-1 Protease % Inhib (dose 100.000 uM): 75.63% |
| CCC(c1cccc(O)c1)c1c(O)c2ccccc2oc1=O (stereo not drawn) [Example 103, Coumarin, 4-hydroxy-3-[1-(3-hydroxyphenyl)propyl]-] | < 10% | 25.7% | 80.9% | HIV-1 Protease % Inhib (dose 100.000 uM): 87.29% and 73.35% |
| O=c1oc2ccccc2c(O)c1C(C1CC1)C1CC1 [Example 104, 3-(dicyclopropyl)methyl-4-hydroxycoumarin] | 12.2% | 68.7% | 106% | IC50 (HIV-1 Protease IC50): 6.74 µM |
| CCC(c1ccccc1)c1c(O)c2ccccc2oc1=O (stereo not drawn) [Example 105, 4-hydroxy-3-(1-phenylpropyl)-coumarin] | – | – | – | IC50 (read-out: HIV-1 Protease IC50): 4.88 µM and 3.88 µM |

| Structure (SMILES) | inhibition at 1 µM [1] | inhibition at 10 µM [2] | inhibition at 100 µM [3] | other results |
| --- | --- | --- | --- | --- |
| CCC(=O)c1ccc(C(CC)c2c(O)c3ccccc3oc2=O)cc1 (stereo not drawn) [Example 106, Coumarin, 4-hydroxy-3-[1-(4-propionylphenyl)propyl]-] | < 10% | 11.7% | 71% | – |
| CCC(c1ccccc1)c1c(O)c2c(oc1=O)CCCCCC2 (stereo not drawn) [Example 108, 5,6,7,8,9,10-Hexahydro-4-hydroxy-3-(1-phenylpropyl)-2H-cycloocta[b]pyran-2-one] | 72.6% | 95.5% | 94.2% | – |
| CCC(c1ccccc1)c1c(O)c2c(oc1=O)CCCCC2 (stereo not drawn) [Example 110, 6,7,8,9-Tetrahydro-4-hydroxy-3-(1-phenylpropyl)-cyclohepta[b]pyran-2(5H)-one] | 16.9% | 73.8% | 99.9% | – |
| O=c1oc2c(c(O)c1C(c1ccccc1)C1CC1)CCC2 (stereo not drawn) [Example 113, 3-(Cyclopropylphenylmethyl)-6,7-dihydro-4-hydroxy-cyclopenta[b]pyran-2(5H)-one] | – | – | – | inhibition at 1 µM [4]: 39.6%; inhibition at 10 µM [5]: 99.8%; inhibition at 100 µM [6]: 109% |
| O=c1oc2c(c(O)c1C(c1ccccc1)C1CC1)CCCCCCCCCC2 (stereo not drawn) [Example 114, 3-(Cyclopropylphenylmethyl)-5,6,7,8,9,10,11,12,13,14-decahydro-4-hydroxy-2H-cyclododeca[b]pyran-2-one] | – | – | – | inhibition at 1 µM [4]: < 10%; inhibition at 10 µM [5]: < 10%; inhibition at 100 µM [6]: 14.1% |
| O=c1oc2c(c(O)c1C(C1CC1)C1CC1)CCCCCC2 [Example 118, 3-(Dicyclopropylmethyl)-5,6,7,8,9,10-hexahydro-4-hydroxy-2H-cycloocta[b]pyran-2-one] | – | – | 105% | inhibition at 0.41 µM (read-out: HIV-1 Protease % Inhib, dose 0.410 uM): 68.7%; inhibition at 1.23 µM (read-out: HIV-1 Protease % Inhib, dose 1.230 uM): 87.9%; inhibition at 3.7 µM (read-out: HIV-1 Protease % Inhib, dose 3.700 uM): 99%; inhibition at 11 µM (read-out: HIV-1 Protease % Inhib, dose 11.000 uM): 110%; inhibition at 33 µM (read-out: HIV-1 Protease % Inhib, dose 33.000 uM): 103% |
| CCC(c1ccccc1)c1c(O)c2ccc(OCCN3CCOCC3)cc2oc1=O (stereo not drawn) [Example 141, 4-Hydroxy-7-(2-morpholin-4-yl-ethoxy)-3-(1-phenyl-propyl)-chromen-2-one] | 14.2% | 77.4% | 103% | – |
| O=c1oc2ccccc2c(O)c1C1(c2ccccc2)CC1 [Example 142, 4-Hydroxy-3-(1-phenyl-cyclopropyl)-chromen-2-one] | < 10% | 15.7% | 71.8% | – |
| CCC(c1cccc(C(=O)NC2c3ccccc3CC2O)c1)c1c(O)c2ccccc2oc1=O (stereo not drawn) [Example 143, N-(2-Hydroxy-indan-1-yl)-3-(1-(4-hydroxy-2-oxo-2H-chromen-3-yl)-propyl)-benzamide] | 10.8% | 77.1% | 92.1% | – |
| CCC(Cc1ccccc1)c1c(O)c2ccccc2oc1=O (stereo not drawn) [Example 144, 3-(1-Benzyl-propyl)4-hydroxy-chromen-2-one] | 25.9% | 77% | 86% | – |
| O=c1oc2ccccc2c(O)c1C(CCc1ccccc1)Cc1ccccc1 (stereo not drawn) [Example 145, 3-(1-Benzyl-3-phenyl-propyl)4-hydroxy-chromen-2-one] | 37% | 81% | 97% | – |
| CCCC(Cc1ccccc1)c1c(O)c2ccccc2oc1=O (stereo not drawn) [Example 147, 3-(1 -Benzyl-butyl)-4-hydroxy-chromen-2-one] | 34.7% | 86.3% | 96.5% | – |
| CCC(c1cccc(C(=O)NCc2nc3ccccc3[nH]2)c1)c1c(O)c2ccccc2oc1=O (stereo not drawn) [Example 148, N-(1H-Benzoimidazol-2-ylmethyl)-3-(1-(4-hydroxy-2-oxo-2H-chromen-3-yl)-propyl)-benzamide] | < 10% | 57.9% | 93.7% | – |
| CC(=O)Oc1ccc(C(C)(C)c2c(O)c3ccccc3oc2=O)cc1 [Example 150, Acetic acid 4-(1-(4-Hydroxy-2-oxo-2H-chromen-3-yl)-l-methyl-ethyl)-phenylester] | < 10% | 62.4% | 93% | – |
| CCC(c1ccccc1)c1c(O)c2ccc(OCCOCCOC)cc2oc1=O (stereo not drawn) [Example 151, 4-Hydroxy-7-(2-(2-methoxy-ethoxy)-ethoxy)-3-(1-phenyl-propyl)-chromen-2-one] | 29.1% | 82.8% | 92.4% | – |
| Cc1cc(C)c2c(c1)C(c1c(O)c3ccccc3oc1=O)CCO2 (stereo not drawn) [Example 153, 4-Hydroxy-6',8'-Dimethyl-3',4'-dihydro-2'H-[3',4']bicromenyl-2-one] | < 10% | 34% | – | HIV-1 Protease % Inhib (dose 100.000 uM): 79.57% and 115.36% |
